Data from PMC6272887, “Discovery of Potent c-MET Inhibitors with New Scaffold Having Different Quinazoline, Pyridine and Tetrahydro-Pyridothienopyrimidine Headgroups” (Molecules, 2016).
Where two headings read alike, the source gives them in different places.

Legend:
[1] = system: HeLa (human cervical carcinoma); assay: Cell proliferative assay (MTT), HeLa; assay type: cell-based; conditions: HeLa cells, read-out: Proliferative Inhibition (IC50, µM) HeLa
Protocol: (§1) The anti-proliferative activities of synthesized compounds against HeLa, Hep-G2 and MCF-7 cells were evaluated by MTT assay. HeLa cells were grown to log phase in RPMI 1640 medium supplemented with 10% fetal bovine serum. Hep-G2 and MCF-7 cells were grown to log phase in DMEM medium supplemented with 10% fetal bovine serum. After diluting to […] with the complete medium, 100 µL of the obtained cell suspension was added to each well of 96-well culture plates. The subsequent incubation was permitted at 37 °C, 5% CO2 atmosphere for 48 h before the anti-proliferative assessments. Tested samples at pre-set concentrations were added to 6 wells. Before the anti-proliferative assessments, 20 µL of PBS containing 2.5 mg∙mL^−1 of MTT was added to each well. Four h later, 100 µL extraction solution (DMSO) was added to each well and the optical density was measured at a wavelength of 570 nm on an ELISA microplate reader.

c-MET = molecular target: T1, c-MET (Homo sapiens, UniProt P08581); assay: In vitro kinase assay (HTScan MET Kinase Assay Kit, colorimetric ELISA); assay type: biochemical; conditions: ATP 10 µM; three independent determinations; read-out: Enzymatic Inhibition (IC50, µM) c-MET
T1 construct: purchased Cell Signaling Technology, Inc
T1 sequence (P08581 25-1390): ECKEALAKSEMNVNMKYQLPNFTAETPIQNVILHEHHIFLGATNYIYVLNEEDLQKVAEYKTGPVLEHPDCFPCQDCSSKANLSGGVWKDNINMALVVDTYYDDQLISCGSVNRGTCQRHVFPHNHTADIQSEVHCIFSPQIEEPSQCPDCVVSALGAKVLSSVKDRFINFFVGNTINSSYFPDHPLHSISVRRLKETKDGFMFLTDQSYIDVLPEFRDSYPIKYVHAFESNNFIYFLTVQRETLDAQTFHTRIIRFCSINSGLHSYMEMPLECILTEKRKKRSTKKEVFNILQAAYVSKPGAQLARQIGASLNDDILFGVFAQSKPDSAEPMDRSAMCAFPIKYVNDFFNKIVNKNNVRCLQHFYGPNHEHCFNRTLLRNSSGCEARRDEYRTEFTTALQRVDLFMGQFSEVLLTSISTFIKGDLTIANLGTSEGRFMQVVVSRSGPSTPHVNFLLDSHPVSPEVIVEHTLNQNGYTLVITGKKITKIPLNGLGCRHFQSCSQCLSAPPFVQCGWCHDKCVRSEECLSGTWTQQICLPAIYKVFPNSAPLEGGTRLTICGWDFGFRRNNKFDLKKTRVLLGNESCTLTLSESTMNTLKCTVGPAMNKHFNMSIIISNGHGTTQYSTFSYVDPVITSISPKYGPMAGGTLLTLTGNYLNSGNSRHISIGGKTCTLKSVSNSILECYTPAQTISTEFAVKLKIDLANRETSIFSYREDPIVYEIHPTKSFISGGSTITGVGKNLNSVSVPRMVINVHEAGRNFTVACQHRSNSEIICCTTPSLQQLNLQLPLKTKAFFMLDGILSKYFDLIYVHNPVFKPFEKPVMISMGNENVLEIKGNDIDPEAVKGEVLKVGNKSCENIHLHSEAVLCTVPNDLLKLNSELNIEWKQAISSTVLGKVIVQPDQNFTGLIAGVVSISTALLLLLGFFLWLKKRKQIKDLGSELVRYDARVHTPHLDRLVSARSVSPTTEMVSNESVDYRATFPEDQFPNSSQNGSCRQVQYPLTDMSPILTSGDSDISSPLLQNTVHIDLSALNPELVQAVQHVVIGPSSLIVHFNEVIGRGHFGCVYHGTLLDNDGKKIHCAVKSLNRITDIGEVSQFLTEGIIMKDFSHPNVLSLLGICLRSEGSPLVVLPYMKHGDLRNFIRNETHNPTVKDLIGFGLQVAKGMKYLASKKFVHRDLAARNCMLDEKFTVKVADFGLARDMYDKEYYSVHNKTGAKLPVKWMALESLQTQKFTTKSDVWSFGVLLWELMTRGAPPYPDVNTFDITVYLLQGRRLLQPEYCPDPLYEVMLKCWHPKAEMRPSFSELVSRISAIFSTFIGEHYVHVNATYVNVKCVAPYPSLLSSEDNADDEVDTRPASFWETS
Protocol: In vitro kinase inhibitory ability was determined using HTScan MET Kinase Assay Kit, HTScan VEGF Receptor 2 Kinase Assay Kit, HTScan c-Kit Kinase Assay Kit, HTScan PDGF Receptor β Kinase Assay Kit and HTScan EGFR Kinase Assay Kit(purchased from Cell Signaling Technology, Inc. Danvers, MA, USA) by colorimetric ELISA assay according to the manufacturer’s instructions. Briefly, reaction cocktail containing recombinant human MET kinase or other kinases were incubated with various concentrations of tested compounds or DMSO (0.1%) for 5 min at room temperature, and then ATP/substrate peptide cocktail was added to the pre-incubated reaction cocktail. After incubation at room temperature for 30 min, the reaction was stopped and transferred to a 96-wellstreptavidin-coated plate, and incubated for 1 h at room temperature. Primary antibody (phosphorylated tyrosine monoclonal antibody (pTyr-100), 1:1000 in PBS/T with 1% bovine serum albumin (BSA)) was added into per well until the wells were washed thrice with PBS/T. After incubated at room temperature for 1 h, phosphorylation of the substrate was monitored with HRP-labeled anti-mouse IgG antibody (1:500 in PBS/T with 1% BSA), followed by a chromogenic reaction. Finally, the kinase assay was detected at 450 nm with microplate reader. The reaction processed with only DMSO (0.1%) served as a vehicle control. […] The kinase assay was performed thrice independently.

[2] = system: MCF-7 (human breast cancer); assay: Cell proliferative assay (MTT), MCF-7; assay type: cell-based; conditions: MCF-7 cells, read-out: Proliferative Inhibition (IC50, µM) MCF-7
Protocol: as §1

[3] = system: Hep-G2 (human liver cancer); assay: Cell proliferative assay (MTT), Hep-G2; assay type: cell-based; conditions: read-out: Proliferative Inhibition (IC50, µM) Hep-G2
Protocol: as §1

[4] = Homo sapiens, HepG2, Hep-G2 cells

Row | Compound | IC50 ([1]; Homo sapiens, HeLa) [µM] | melting point [°C] | IC50 (c-MET) [µM] | IC50 ([2]; Homo sapiens, MCF7, MTT assay) [µM] | IC50 [3, 4] [µM] | IC50 [1] [µM] | IC50 ([2]; MTT assay) [µM] | IC50 ([3]; Hep-G2 cells) [µM]
1 | COc1cc2ncnc(Oc3cccc(C(=O)Nc4cc(C(C)(C)C)nn4-c4ccccc4)c3)c2cc1OC [Compound 9a, N-(3-(tert-butyl)-1-phenyl-1H-pyrazol-5-yl)-3-((6,7-dimethoxyquinazolin-4-yl)oxy)benzamide] | 28.7 ± 1.1 | 217 to 219 | 8.4 ± 0.6 | 46.1 ± 0.8 | 38.5 ± 1.3 | – | – | –
2 | CNC(=O)c1cc(Oc2cccc(C(=O)Nc3cc(C(C)(C)C)nn3-c3ccccc3)c2)ccn1 [Compound 9b] | > 100 | – | > 10 | 59.7 ± 1.3 | > 100 | – | – | –
3 | CC(C)(C)OC(=O)N1CCc2c(sc3ncnc(Oc4cccc(C(=O)Nc5cc(C(C)(C)C)nn5-c5ccccc5)c4)c23)C1 [Compound 9c, tert-butyl 4-{3-((3-(tert-butyl)-1-phenyl-1H-pyrazol-5-yl)carbamoyl)phenoxy}-5,6-dihydropyrido(4’,3’:4,5)thieno(2,3-d)pyrimidine-7(8H)-carboxylate] | > 100 | – | > 10 | 66.7 ± 1.5 | > 100 | – | – | –
4 | COc1ccc(NC(=O)c2cccc(Oc3ncnc4cc(OC)c(OC)cc34)c2)cc1OC [Compound 11a, N-(3,4-dimethoxyphenyl)-3-((6,7-dimethoxyquinazolin-4-yl)oxy)benzamide] | 14.1 ± 0.16 | 220 to 222 | 0.52 ± 0.05 | 3.4 ± 0.21 | > 100 | – | – | –
5 | COc1cc2ncnc(Oc3cccc(C(=O)Nc4ccc(Cl)cc4)c3)c2cc1OC [Compound 11b, N-(4-chlorophenyl)-3-((6,7-dimethoxyquinazolin-4-yl)oxy)benzamide] | 1.8 ± 0.06 | 203 to 205 | 0.12 ± 0.03 | 7.8 ± 0.14 | 9.2 ± 0.17 | – | – | –
6 | COc1cc2ncnc(Oc3cccc(C(=O)Nc4ccc(F)cc4)c3)c2cc1OC [Compound 11c, 3-((6,7-dimethoxyquinazolin-4-yl)oxy)-N-(4-fluorophenyl)benzamide] | 0.9 ± 0.12 | 178 to 180 | 0.08 ± 0.04 | 5.2 ± 0.36 | 10.1 ± 0.2 | – | – | –
7 | CNC(=O)c1cc(Oc2cccc(C(=O)Nc3ccc(OC)c(OC)c3)c2)ccn1 [Compound 11d, 4-{3-((3,4-dimethoxyphenyl)carbamoyl)phenoxy}-N-methylpicolinamide] | > 100 | – | > 10 | 71.2 ± 0.34 | > 100 | – | – | –
8 | CNC(=O)c1cc(Oc2cccc(C(=O)Nc3ccc(Cl)cc3)c2)ccn1 [Compound 11e, 4-{3-((4-chlorophenyl)carbamoyl)phenoxy}-N-methylpicolinamide] | 26.4 ± 0.2 | – | 7.4 ± 0.07 | 34.5 ± 0.36 | > 100 | – | – | –
9 | CNC(=O)c1cc(Oc2cccc(C(=O)Nc3ccc(F)cc3)c2)ccn1 [Compound 11f, 4-{3-((4-fluorophenyl)carbamoyl)phenoxy}-N-methylpicolinamide] | 27.8 ± 0.34 | – | 5.3 ± 0.05 | 42.1 ± 0.27 | > 100 | – | – | –
10 | COc1ccc(NC(=O)c2cccc(Oc3ncnc4sc5c(c34)CCN(C(=O)OC(C)(C)C)C5)c2)cc1OC [Compound 11g, tert-butyl 4-{3-((3,4-dimethoxyphenyl)carbamoyl)phenoxy}-5,6-dihydropyrido(4’,3’:4,5)thieno(2,3-d)pyrimidine-7(8H)-carboxylate] | 4.4 ± 0.26 | 103 to 105 | 1.4 ± 0.1 | 17.3 ± 0.38 | > 100 | – | – | –
11 | CC(C)(C)OC(=O)N1CCc2c(sc3ncnc(Oc4cccc(C(=O)Nc5ccc(Cl)cc5)c4)c23)C1 [Compound 11h, tert-butyl 4-{3-((4-chlorophenyl)carbamoyl)phenoxy}-5,6-dihydropyrido(4’,3’:4,5)thieno(2,3-d)pyrimidine-7(8H)-carboxylate] | 10.7 ± 0.18 | – | 0.25 ± 0.08 | 22.9 ± 0.22 | 61.9 ± 0.23 | – | – | –
12 | CC(C)(C)OC(=O)N1CCc2c(sc3ncnc(Oc4cccc(C(=O)Nc5ccc(F)cc5)c4)c23)C1 [Compound 11i, tert-butyl 4-{3-((4-fluorophenyl)carbamoyl)phenoxy}-5,6-dihydropyrido(4’,3’:4,5)thieno(2,3-d)pyrimidine-7(8H)-carboxylate] | 1.5 ± 0.11 | – | 0.05 ± 0.02 | 1.1 ± 0.31 | 23.2 ± 0.36 | – | – | –
13 | N-(4-fluorophenyl)-N-{4-((2-(methylcarbamoyl)pyridin-4-yl)oxy)phenyl}cyclobutane-1,1-dicarboxamide [Compound 13f] | – | – | > 10 | – | – | 87.8 ± 0.13 | > 100 | > 100
14 | N-(4-fluorophenyl)-N-{4-((2-(methylcarbamoyl)pyridin-4-yl)oxy)phenyl}cyclopropane-1,1-dicarboxamide [Compound 13e] | – | – | > 10 | – | – | 66.7 ± 0.36 | > 100 | > 100

Now from value to compound, other results behind:

Row | IC50 ([1]; Homo sapiens, HeLa) [µM] | melting point [°C] | IC50 (c-MET) [µM] | IC50 ([2]; Homo sapiens, MCF7, MTT assay) [µM] | IC50 [3, 4] [µM] | Compound | IC50 [1] [µM] | IC50 ([2]; MTT assay) [µM] | IC50 ([3]; Hep-G2 cells) [µM]
15 | > 100 | 210 to 212 | 7.1 ± 0.18 | 71.8 ± 0.31 | > 100 | COc1cc2ncnc(Oc3ccc(NC(=O)C(C)(C)C(=O)Nc4ccc(F)cc4)cc3F)c2cc1OC [Compound 13a, N^1-{4-((6,7-dimethoxyquinazolin-4-yl)oxy)-3-fluorophenyl}-N^3-(4-fluorophenyl)-2,2-dimethylmalonamide] | – | – | –
16 | 50.1 ± 0.25 | 250 to 252 | 1.2 ± 0.06 | > 100 | 49.1 ± 0.3 | COc1cc2ncnc(Oc3ccc(NC(=O)C4(C(=O)Nc5ccc(F)cc5)CCC4)cc3F)c2cc1OC [Compound 13c, N-{4-((6,7-dimethoxyquinazolin-4-yl)oxy)-3-fluorophenyl}-N-(4-fluorophenyl)cyclobutane-1,1-dicarboxamide] | – | – | –
17 | > 100 | 113 to 115 | > 10 | 91.2 ± 0.26 | > 100 | CNC(=O)c1cc(Oc2ccc(NC(=O)C(C)(C)C(=O)Nc3ccc(F)cc3)cc2)ccn1 [Compound 13d, N^1-(4-fluorophenyl)-2,2-dimethyl-N^3-{4-((2-(methylcarbamoyl)pyridin-4-yl)oxy]phenyl}malonamide] | – | – | –
18 | > 100 | 126 to 128 | 9.4 ± 0.6 | 27.7 ± 0.35 | > 100 | CC(C)(C)OC(=O)N1CCc2c(sc3ncnc(Oc4ccc(NC(=O)C(C)(C)C(=O)Nc5ccc(F)cc5)cc4F)c23)C1 [Compound 13g, tert-butyl-4-{2-fluoro-4-(3-((4-fluorophenyl)amino)-2,2-dimethyl-3-oxopropanamido)phenoxy}-5,6-dihydropyrido(4’,3’:4,5)thieno(2,3-d)pyrimidine-7(8H)-carboxylate] | – | – | –
19 | 4.2 ± 0.31 | 101 to 103 | 0.25 ± 0.08 | 21.7 ± 0.16 | 43.2 ± 0.26 | CC(C)(C)OC(=O)N1CCc2c(sc3ncnc(Oc4ccc(NC(=O)C5(C(=O)Nc6ccc(F)cc6)CCC5)cc4F)c23)C1 [Compound 13i, tert-butyl-4-{2-fluoro-4-(1-((4-fluorophenyl)carbamoyl)cyclobutanecarboxamido)phenoxy}-5,6-dihydropyrido(4’,3’:4,5)thieno(2,3-d)pyrimidine-7(8H)-carboxylate] | – | – | –
